Assay results taken from EP1173217B1, “ENHANCED DELIVERY OF NUCLEIC ACID-BASED DRUGS” (Merrion Research I Limited, priority 1999, dated 2000).
Like-named read-outs stand apart in the source and are kept apart here.

Columns and labels:
[1] = system: non-differentiated Caco-2 cells
Method: Caco-2 cells were seeded on coverslips treated with polylysine at a concentration of approximately 2.5 - 5x10^5 cells/ml and grown to confluence. Cells were washed once with PBS without Ca^2+, Mg^2+. 1-2 ml of PBS w/o Ca^2+, Mg^2+ containing antisense oligonucleotides +/- enhancers was added and cells were incubated for 30 min at 37°C. Variations to this protocol by pre-incubating cells with enhancers (40min), washing with PBS w/o Ca^2+, Mg^2+ and then incubating with antisense oligonucleotides for 30min were also analysed.
Two different FITC labelled antisense oligonucleotides were used: FITC-labelled ELNG05 (5'-[…]-3'; complementary to a sequence in the human BCR-Abl mRNA) and FITC-labelled S-PTH-05 (5'-[…]-3', complementary to sequence 153-170 of the human HPT1 receptor mRNA). […] The uptake of antisense oligonucleotides was also analysed in the absence of enhancers for variable periods of time (30min - 60min). Following incubation, cells were washed twice with PBS w/o Ca^2+, Mg^2+ and stained with 1µg/ml TexasRed-DHPE (dihexadecanoylglycerophosphoethanolamine, Molecular Probe T-1395) for 15min at 37°C, washed extensively and fixed with paraformaldeyde pH shift (Barcallo, 1995) and mounted for analysis by confocal laser scanning microscopy (CLSM).
After two washes with PBS w/o Ca^2+ and Mg^2+, the cells were incubated with 2ml of FITC-antisense oligonucleotide (ELNG05) at a concentration of 10µM in PBS w/o Ca^2+ and Mg^2+ and incubated at 37°C for 30min.
Caco-2 cells were incubated with 1ml of antisense +/- enhancers in PBS w/o Ca^2+ and Mg^2+ and incubated for 30min at 37°C. Two different fluorescently labelled antisense oligonucleotides were used in these experiments at a concentration of 10µM: ELNG05 (antisense to BCR-Ab1) and S-PTH-05 (antisense to HPT1 receptor). […] The uptake of antisense was also analysed in the absence of enhancers for 30min and 60min as control.

Caco-2 cells = conditions: cationic lipid (lipofectamine): plasmid DNA complex alone set at 100%; β-galactosidase 24 hours post transfection; enhancer concentration not given in the sentence (C8 30 or 5mM, C10 5 or 1mM tested)

CCCCCCCCCC(=O)[O-].[Na+] [C10, sodium caprate]
cell permeation / intracellular staining with TexasRed-DHPE and FITC-oligonucleotide (CLSM) ([1]; Experiment a, C10 at 10-13mM pre-incubated 40min, then 10µM FITC-ELNG05 30min): permeated completely the cells | uptake of antisense (CLSM) ([1]; Experiment b, C10 2.6 mM together with 10µM antisense, 30min): did not increase the uptake of antisense | effect on Caco-2 cell adherence ([1]; Experiment b, C10 13mM, 30min): loss of adherence of Caco-2 cells | staining of cells (CLSM) ([1]; Experiment c, C10 8mM with 10µM antisense, 30min): only punctate staining, similar to the control | staining of cells (CLSM) ([1]; Experiment c, C10 10mM with 10µM antisense, 30min): completely stained | effect on cells ([1]; Experiment c, C10 between 13mM and 8mM, 30min): destruction of cells | efficiency of transfection (Caco-2 cells): 245%
